# What was measured:
# [1] = system: MRE constructs; assay: Transient transfection of LUC reporter constructs in zebrafish ZEM2S cells, MRE constructs; assay type: cell-based
# [2] = system: EPRE constructs; assay: Transient transfection of LUC reporter constructs in zebrafish ZEM2S cells, EPRE constructs; assay type: cell-based
# [3] = system: AHRE reporter constructs; assay: Transient transfection of LUC reporter constructs in zebrafish ZEM2S cells, AHRE constructs; assay type: cell-based
# [4] = cited from earlier work
smiles,measurement,setting,value
[Cl][Cd][Cl] [CdCl2],concentration achieving maximal LUC activity,[1],30 µM
CC(C)(C)c1cc(O)ccc1O [tBHQ],concentration achieving maximal LUC activity,[2],10 µM
"Clc1cc2c(cc1Cl)Oc1cc(Cl)c(Cl)cc1O2 [TCDD, 2,3,7,8-tetrachlorodibenzo-p-dioxin]",concentration achieving maximal LUC activity,[3],10 nM
same,bioconcentration in fish,[4],"100,000 fold"
same,bioconcentration,"[4]; fish, in the food chain","> 100,000 times"

# Reference: patent US20060143718A1, “Transgenic animals for monitoring water quality” (priority 2000, published 2006)
